{"source": "patent US6946076B2", "about": "“Removal of phosphate from water” (Dudley Mills Pty Ltd., priority 2001, dated 2005)", "details": "made by mixing lanthanum chloride, citric acid and sodium hydroxide solutions", "data": [{"substance": "lanthanum hydroxy-citrate", "values": [{"measurement": "content of clear stable solutions", "result": "up to 200 g/l"}]}]}
